For one assay, the target named is T1, hIDO1 (Homo sapiens, UniProt P14902).
T1 construct: purchased BPS Bioscience (San Diego, CA, USA)
Briefly: hIDO1 enzymatic assay (BPS Bioscience IDO1 inhibitor screening assay kit). In kind it is biochemical. The note with it: for inhibition at 20 µM: 20 µM compound, enzymatic assay. The method, then:
To analyze the hIDO1 inhibitory activities of compounds, we used IDO1 inhibitor screening assay kit and followed the protocol provided from BPS Bioscience (San Diego, CA, USA). Briefly, 5 μL of IDO solution was aliquoted into a 384-well plate and treated with 5 μL of compound in buffer at room temperature for 3 h. The data was measured at λ = 320 to 325 nm.

For assay [1], the target named is T2, human IDO1 expressing HEK293 recombinant cells (Homo sapiens, UniProt P14902).
T2 construct: expressed in transfected cells; host or cells: Flp-In-Rex- HEK293 cells (Invitrogen), pcDNA5/FRT/TO vector, doxycycline-induced
T2 sequence (P14902 whole entry): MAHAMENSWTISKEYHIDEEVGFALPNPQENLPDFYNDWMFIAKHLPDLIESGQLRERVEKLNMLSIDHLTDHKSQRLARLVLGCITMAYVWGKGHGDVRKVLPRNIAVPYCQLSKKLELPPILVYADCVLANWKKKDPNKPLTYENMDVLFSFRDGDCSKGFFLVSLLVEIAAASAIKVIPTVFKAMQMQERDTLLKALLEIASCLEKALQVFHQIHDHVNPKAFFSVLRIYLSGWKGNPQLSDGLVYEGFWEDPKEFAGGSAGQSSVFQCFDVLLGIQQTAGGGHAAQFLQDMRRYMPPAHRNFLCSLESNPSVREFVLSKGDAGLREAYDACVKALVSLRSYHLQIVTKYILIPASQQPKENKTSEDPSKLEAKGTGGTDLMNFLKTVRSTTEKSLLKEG
Briefly: Cell based assay for anti-IDO1 activity by determination of tryptophan and kynurenine in culture supernatant using LC-MS. The conditions noted are these: for IC50: human IDO1-expressing HEK293 cells, doxycycline induced, 24 h, dose-response curve. The method, then: All synthesized compounds were evaluated for inhibitory activities against IDO1. For this purpose, we generated human IDO1 gene-expressing HEK293 recombinant cells and used those cells to analyze the inhibitory capacity of the compounds. Briefly, we induced the expression vector system of IDO1 by treating […] cells with doxycycline, and measured both the depletion of L-tryptophan in culture media and the generation of kynurenine in IDO1-overexpressing HEK293 cells by using the LC-MS system upon culture supernatants.
cDNA of human IDO1 gene (provided from Korean UniGene, Daejeon, Korea) was inserted into pcDNA5/FRT/TO expression vector (Invitrogen, Waltham, MA, USA) and transfected into Flp-In-Rex- HEK293 cells (Invitrogen). After transfection, homogenous IDO1 expressing HEK293 cells were selected using hygromycin and confirmed for their IDO1 expression using Western blot.
To analyze anti-IDO1 activity of compounds, human IDO1 expressing HEK293 recombinant cells were seeded in 100 μL of complete MEM media containing 10% FBS in a 96-well plate. After incubation for 48 hours, various concentrations of compounds with 0.2 ng/mL doxycyclin (Sigma Aldrich, St. Louis, MO, USA) was treated and incubated for 24 h. Culture supernatants were collected and prepared for analysis of tryptophan and kynurenine using LC-MS. For preparation of samples for LC-MS analysis, 30 μL of culture supernatant was mixed with 2 μM caffeine containing 270 μL methanol. After centrifugation at 12,000 rpm for 10 min, 100 μL of supernatant was transferred into new 1.5 mL tubes. Distilled water (900 μL) was added into 100 μL of supernatant and vortexed. The concentrations of tryptophan and kynurenine were determined by an LC-MS/MS system consisting of an Agilent 1200 series HPLC system (Agilent Technologies, Santa Clara, CA, USA) with an API 4000 QTRAP hybrid triple quadrupole/linear ion trap mass spectrometer (AB Sciex, Foster City, CA, USA) equipped with a turbo electrospray interface. Chromatographic separation of tryptophan and kynurenine was achieved on a Unison UK-C18 column (100 mm × 2 mm i.d., 3 μm; Imtakt, Kyoto, Japan) with a Security Guard C18 guard column (4 mm × 20 mm i.d.; Phenomenex, Torrance, CA, USA) maintained at 25 °C. Isocratic mode was used to achieve separation of the analytes using mobile phase (acetonitrile with 0.1 formic acid and water with 0.1% formic acid (20:80 v/v) at a flow rate of 300 μL/min for 3 min. The multiple reaction monitoring (MRM) transition was m/z 204.94 → 188.1 for tryptophan and m/z 208.97 → 192.00 for kynurenine under positive-ionization. Optimized values for de-clustering potential, collision energy, entrance potential, and collision-exit potential were 26 V, 15 eV, 9.5 V and 8 V and 21 V, 13 eV, 10 V and 8 V for tryptophan and kynurenine, respectively. The optimized instrument conditions were as follows: ion spray voltage, 5500 V; source temperature, 450 °C; curtain gas, 25 psi; nebulizing gas (GS1), 30 psi; heating gas (GS2), 30 psi. Data analysis was performed using Analyst Software version 1.4.2. (AB Sciex, Foster City, CA, USA).

Setting [2] is: kynurenine by LC-MS, read-out: HEK293 IC50 Kynurenine Production.
Setting [3] is: tryptophan by LC-MS, read-out: HEK293 IC50 Tryptophan Depletion.

These results are taken from PMC6150275, “Synthesis and Molecular Modeling Studies of N′-Hydroxyindazolecarboximidamides as Novel Indoleamine 2,3-Dioxygenase 1 (IDO1) Inhibitors” (Molecules : A Journal of Synthetic Chemistry and Natural …, 2017).

“Also recorded” adds a separate entry of the source. Read-outs that look alike come from different tables or passages of the source.

T1 sequence (P14902 whole entry): as above

Consider `O/N=C(\Nc1ccc(F)c(Br)c1)c1cccc2cn[nH]c12` [Compound 8a, (Z)-N-(3-Bromo-4-fluorophenyl)-N′-hydroxy-1H-indazole-7-carboximidamide], for which, at hIDO1, the inhibition at 20 µM is 81%. In addition, the “IDO1 inhibition in cell-based assay (in words)” value in assay [1] was “most active in this series; also recorded: moderate IDO1 inhibitory activity”. The half-maximal inhibitory concentration (IC50) in assay [1] (setting [2]) stood at 2.13 µM; in assay [1] (setting [3]), 1.76 µM.
As for `O/N=C(\Nc1ccc(F)c(Cl)c1)c1cccc2cn[nH]c12` [Compound 8b, (Z)-N-(3-Chloro-4-fluorophenyl)-N′-hydroxy-1H-indazole-7-carboximidamide], at 20 µM the inhibition on hIDO1 was 79%. In addition, the figures for the IC50 in assay [1] (setting [2]) and in assay [1] (setting [3]) were 3.14 µM and 3.26 µM, respectively.
Molecule `O/N=C(\Nc1cccc(Cl)c1)c1cccc2cn[nH]c12` [Compound 8c, (Z)-N-(3-Chlorophenyl)-N′-hydroxy-1H-indazole-7-carboximidamide] came in with an inhibition at 20 µM at hIDO1 of 77%. Moreover, the 50% inhibitory concentration (IC50) in assay [1] (setting [2]) was 4.89 µM; in assay [1] (setting [3]), 4.95 µM.
With `O/N=C(\Nc1ccc(F)cc1)c1cccc2cn[nH]c12` [Compound 8d, (Z)-N-(4-Fluorophenyl)-N′-hydroxy-1H-indazole-7-carboximidamide], the half-inhibitory concentration (IC50) in assay [1] (setting [2]) and in assay [1] (setting [3]) was more than 10 µM throughout.
For the molecule `O/N=C(\Nc1cc(F)ccc1F)c1cccc2cn[nH]c12` [Compound 8e, (Z)-N-(2,5-Difluorophenyl)-N′-hydroxy-1H-indazole-7-carboximidamide], the half-inhibitory concentration (IC50) in assay [1] (setting [2]) and in assay [1] (setting [3]) was more than 10 µM throughout.
With `CC(=O)c1cccc(N/C(=N\O)c2cccc3cn[nH]c23)c1` [Compound 8f, (Z)-N-(3-Acetylphenyl)-N′-hydroxy-1H-indazole-7-carboximidamide], the IC50 in assay [1] (setting [2]) and in assay [1] (setting [3]) was more than 10 µM throughout.
For `Cc1cccc(N/C(=N\O)c2cccc3cn[nH]c23)c1` [Compound 8g, (Z)-N′-Hydroxy-N-(m-tolyl)-1H-indazole-7-carboximidamide], the IC50 in assay [1] (setting [2]) and in assay [1] (setting [3]) was more than 10 µM throughout.
Take `Cc1cc(N/C(=N\O)c2cccc3cn[nH]c23)ccc1Cl` [Compound 8h, (Z)-N-(4-Chloro-3-methylphenyl)-N′-hydroxy-1H-indazole-7-carboximidamide]: the IC50 in assay [1] (setting [2]) and in assay [1] (setting [3]) was more than 10 µM each time.
On to `COc1ccc(N/C(=N\O)c2cccc3cn[nH]c23)cc1Cl` [Compound 8i, (Z)-N-(3-Chloro-4-methoxyphenyl)-N′-hydroxy-1H-indazole-7-carboximidamide], for which the IC50 in assay [1] (setting [2]) and in assay [1] (setting [3]) was more than 10 µM in each case.
`O/N=C(\Nc1ccccc1)c1cccc2cn[nH]c12` [Compound 8j, (Z)-N′-Hydroxy-N-phenyl-1H-indazole-7-carboximidamide]: the IC50 in assay [1] (setting [2]) and in assay [1] (setting [3]) was more than 10 µM throughout.
Turning to `O/N=C(\Nc1ccc(Cl)cc1)c1cccc2cn[nH]c12` [Compound 8k, (Z)-N-(4-Chlorophenyl)-N′-hydroxy-1H-indazole-7-carboximidamide], the IC50 in assay [1] (setting [2]) and in assay [1] (setting [3]) was more than 10 µM in each case.
Consider `COc1ccc(N/C(=N\O)c2cccc3cn[nH]c23)cc1` [Compound 8l, (Z)-N′-Hydroxy-N-(4-methoxyphenyl)-1H-indazole-7-carboximidamide], for which the IC50 in assay [1] (setting [2]) and in assay [1] (setting [3]) was more than 10 µM in each case.
As to `Cc1ccc(N/C(=N\O)c2cccc3cn[nH]c23)cc1` [Compound 8m, (Z)-N′-Hydroxy-N-(p-tolyl)-1H-indazole-7-carboximidamide], the IC50 in assay [1] (setting [2]) and in assay [1] (setting [3]) was more than 10 µM each time.
`Cn1ncc2cccc(/C(=N/O)Nc3ccc(F)c(Br)c3)c21` [Compound 12, (Z)-N-(3-Bromo-4-fluorophenyl)-N′-hydroxy-1-methyl-1H-indazole-7-carboximidamide]: at hIDO1, the “hIDO1 inhibition in enzymatic assay (in words)” value is listed as “did not inhibit IDO1” and the inhibition at 20 µM was determined as 15%. Besides, the “IDO1 inhibition in cell-based assay (in words)” value in assay [1] is “did not inhibit IDO1”. In addition, in assay [1] (setting [2]), the IC50 is more than 10 µM. Further, the IC50 in assay [1] (setting [3]) is more than 10 µM.
On to `O/N=C(\Nc1ccc(F)c(Br)c1)c1ccccc1O` [Compound 16, (Z)-N-(3-Bromo-4-fluorophenyl)-N′,2-dihydroxybenzimidamide], for which the “IDO1 inhibition in cell-based assay (in words)” value in assay [1] is “moderate inhibitory activity”. The IC50 in assay [1] (setting [2]) was 7.91 µM; in assay [1] (setting [3]) it was 7.76 µM.

A word on the inhibition: it is the drop in the measured response relative to a control, in per cent. A low value points to a response near the control. A word on the IC50: it is the concentration that gives 50% inhibition.
